Laboratory results: patent US8653258B2, “Compositions for regulating or modulating quorum sensing in bacteria, methods of using the compounds, and methods of regulating or modulating quorum sensing in bacteria” (Georgia State University Research Foundation, Inc., priority 2007, dated 2014)
Where “and” joins values, the source holds several entries; their conditions need not be identical. Identical values can stand only once. Like-named read-outs stand apart in the source and are kept apart here.

Legend:
[1] = test system: AI-2-mediated gene expressions; conditions: at about 323 μM; cited from earlier work
[2] = test system: AI-2-mediated quorum sensing; assay: microbe, parasite or virus in culture; assay type: cell-based, Vibrio harveyi; conditions: tested at least 3 times
Procedure: The candidate compounds identified as described in Example 1, above, were tested for their ability to inhibit AI-2 induced quorum sensing using the MM32 strain of V. harveyi. […] The V. harveyi bacteria can also emit luminescence upon AI-2 induced quorum sensing stimulation. Therefore, the ability of the “virtually” identified compounds to inhibit luminescence production in the presence of DPD and boric acid was examined.
MM32 bacteria were streak-seeded on fresh LM plates and cultured in the presence of kanamycin (50 μg/mL) and chloramphenicol (10 μg/mL). Colonies appeared after overnight incubation at 30° C. A single colony was picked up from the LM plate. This strain was grown for 16 hrs with aeration at 175 r.p.m and at 30° C. in 2 mL of Autoinducer Bioassay (AB) medium with antibiotics (kanamycin 50 μg/mL and chloramphenicol 10 μg/mL). The culture was then diluted to an OD600 0.7. This preinoculum was grown in AB-Fe medium with 1.2 mM of iron to OD600 1.0-1.1. The resulting inoculum culture was then diluted 5000-fold in fresh AB medium.
Solutions of the test compounds in AB medium were prepared in 96-well plates. To these solutions, freshly synthesized DPD (pH=7) solution was added for a final concentration of 5 μM. Boric acid was added to give a final concentration of 1 mM. After the addition of bacteria in AB medium, the micro plates were covered with a non-toxic plate sealer and incubated at 30° C. with aeration for 3-4 hrs.
In an initial round of screening, the concentration of the test compounds was fixed at 100 μg/mL (about 200-600 μM).

V. harveyi = assay: Bacterial growth curves (doubling time); assay type: cell-based, Vibrio harveyi
From the text: To make sure that the observed luminescence intensity changes were not due to inhibition of bacterial growth, the effect of these boronic acids on bacterial growth was also studied.

cysteines in protein = conditions: read-out: EC50, covalent modification of cysteines in protein; cited from earlier work
[3] = V. harveyi MM32, DPD 5 μM, boric acid 1 mM, read-out: IC50 value, inhibition of AI-2-mediated quorum sensing (V. harveyi luminescence)
[4] = compound at 125 μM, control 79.4 min
[5] = Vibrio harveyi, read-out: IC50 value, inhibition of AI-2-mediated quorum sensing (V. harveyi luminescence), V. harveyi MM32, DPD 5 μM, boric acid 1 mM

Row | SMILES | IC50 [2, 5] [µM] | also measured
1 | CCCCC1=C(Br)/C(=C/Br)OC1=O [(5Z)-4-bromo-5-(bromomethylene)-3-butyl-2(5H)-furanone] | – | inhibition of AI-2-mediated gene expressions [1]: inhibit many AI-2-mediated gene expressions
2 | OB(O)c1cncc2ccccc12 [Compound 4-IQBA] | – | IC50 [2, 3]: 66 µM and 66.1 µM; doubling time (V. harveyi; [4]): 80.4 min
3 | OB(O)c1cccc2cnccc12 [Compound 5-IQBA] | – | IC50 [2, 3]: 30 µM and 30.4 µM; doubling time (V. harveyi; [4]): 99.2 min
4 | CC(C)OC(=S)CS(=O)(=O)c1ccccc1 [Compound 23] | 33 ± 4 | –
5 | Oc1cccc(O)c1O [Compound 61, pyrogallol] | 2 | effect on bacterial growth (V. harveyi): not due to growth inhibition; doubling time (V. harveyi; compound at 5 μM, control 78.9 min): 78.4 min
6 | c1ccc2c(c1)Nc1ccccc1S2 [Compound 62, phenothiazine] | 10 | IC50 ([2]; read-out: IC50 value, inhibition of AI-2-mediated quorum sensing (V. harveyi luminescence), V. harveyi MM32, DPD 5 μM, boric acid 1 mM): 10.7 ± 3.7 µM; effect on bacterial growth (V. harveyi): not due to growth inhibition; doubling time (V. harveyi; compound at 20 μM, control 78.9 min): 72.3 min
7 | Oc1ccccc1O [Compound 63, catechol] | 59 ± 9 | –
8 | CCOC(=S)CS(=O)(=O)c1ccc(Br)cc1 [Compound H14] | 13.8 ± 2 | –
9 | CCOC(=S)CS(=O)(=O)c1ccc(OC)cc1 [Compound H18] | 26 ± 3.5 | –
10 | CCOC(=O)CS(=O)(=O)c1ccc(-c2ccc3c(c2)OCCO3)cc1 [Compound H20] | 157 ± 43 | –
11 | CCOC(=O)CS(=O)(=O)c1ccc(-c2ccc(C)cc2)cc1 [Compound H21] | 8.2 ± 2.3 | –
12 | CCOC(=O)CS(=O)(=O)c1ccc(-c2ccc(C(N)=O)cc2)cc1 [Compound H24] | 31.3 ± 23 | –
13 | CCCS(=O)(=O)CC(=S)OCC [Compound H26] | 21.6 ± 2.9 | –
14 | CCOC(=O)CS(=O)(=O)c1cccc(Br)c1 [Compound H28] | 162 ± 22 | –
15 | O=CC=Cc1ccccc1 [cinnamaldehyde] | – | EC50 (cysteines in protein): 19 µM
